Where two headings read alike, the source gives them in different places.
Experiments:
Assay type in all cases: cell-based
HL-60(TB) [1] = assay: NCI60 five-dose screen; conditions: Homo sapiens, HL-60, HL-60(TB), Leukemia, read-out: GI50
K-562 = assay: NCI60 five-dose screen; conditions: Homo sapiens, K562, K-562, Leukemia, read-out: GI50
RPMI-8226 = assay: NCI60 five-dose screen; conditions: Homo sapiens, RPMI-8226, Leukemia, read-out: GI50
NCI-H322M [2] = assay: NCI60 five-dose screen; conditions: Homo sapiens, Non-small Cell Lung Cancer, read-out: GI50
COLO 205 = assay: NCI60 five-dose screen; conditions: Homo sapiens, COLO 205, COLO 205, Colon Cancer, read-out: GI50
HCC-2998 = assay: NCI60 five-dose screen; conditions: Homo sapiens, HCC-2998, Colon Cancer, read-out: GI50
HCT-15 [3] = assay: NCI60 five-dose screen; conditions: Homo sapiens, HCT-15, Colon Cancer, read-out: GI50
SF-268 = assay: NCI60 five-dose screen; conditions: Homo sapiens, SF-268, CNS Cancer, read-out: GI50
SF-539 = assay: NCI60 five-dose screen; conditions: Homo sapiens, SF-539, CNS Cancer, read-out: GI50
MALME-3M [4] = assay: NCI60 five-dose screen; conditions: Homo sapiens, MALME-3M, Melanoma, read-out: GI50
SK-MEL-28 [5] = assay: NCI60 five-dose screen; conditions: Homo sapiens, SK-MEL-28, Melanoma, read-out: GI50
OVCAR-3 [6] = assay: NCI60 five-dose screen; conditions: Homo sapiens, OVCAR-3, Ovarian Cancer, read-out: GI50
NCI/ADR-RES = assay: NCI60 five-dose screen; conditions: Homo sapiens, Ovarian Cancer, read-out: GI50
SK-OV-3 = assay: NCI60 five-dose screen; conditions: Homo sapiens, SK-OV-3, Ovarian Cancer, read-out: GI50
RXF 393 [7] = assay: NCI60 five-dose screen; conditions: Homo sapiens, RXF 393, Renal Cancer, read-out: GI50
HS 578T = assay: NCI60 five-dose screen; conditions: Homo sapiens, HS 578T, Breast Cancer, read-out: GI50
BT-549 [8] = assay: NCI60 five-dose screen; conditions: Homo sapiens, BT-549, Breast Cancer, read-out: GI50
Leukemia panel = assay: NCI60 five-dose screen, panel mean; conditions: Homo sapiens, mean over Leukemia panel
CNS Cancer panel = assay: NCI60 five-dose screen, panel mean; conditions: Homo sapiens, mean over CNS Cancer panel
Ovarian Cancer panel = assay: NCI60 five-dose screen, panel mean; conditions: Homo sapiens, mean over Ovarian Cancer panel
Renal Cancer panel = assay: NCI60 five-dose screen, panel mean; conditions: Homo sapiens, mean over Renal Cancer panel
Breast Cancer panel = assay: NCI60 five-dose screen, panel mean; conditions: Homo sapiens, mean over Breast Cancer panel
CCRF-CEM = assay: NCI60 one-dose screen; conditions: Homo sapiens, 10 μM, one-dose, read-out: Growth percent
HL-60(TB) [9] = assay: NCI60 one-dose screen; conditions: Homo sapiens
A549/ATCC = assay: NCI60 one-dose screen; conditions: Homo sapiens; A549/ATCC, 10 μM, one-dose; read-out: Growth percent
HOP-62 = assay: NCI60 one-dose screen; conditions: Homo sapiens; HOP-62, 10 μM, one-dose; read-out: Growth percent
NCI-H226 = assay: NCI60 one-dose screen; conditions: Homo sapiens; NCI-H226, 10 μM, one-dose; read-out: Growth percent
NCI-H23 = assay: NCI60 one-dose screen; conditions: Homo sapiens; NCI-H23, 10 μM, one-dose; read-out: Growth percent
NCI-H322M [10] = assay: NCI60 one-dose screen; conditions: Homo sapiens, 10 μM, one-dose, read-out: Growth percent
HCT-116 = assay: NCI60 one-dose screen; conditions: Homo sapiens; HCT-116, 10 μM, one-dose; read-out: Growth percent
HCT-15 [11] = assay: NCI60 one-dose screen; conditions: Homo sapiens; HCT-15, 10 μM, one-dose; read-out: Growth percent
HT29 = assay: NCI60 one-dose screen; conditions: Homo sapiens, HT-29; HT29, 10 μM, one-dose; read-out: Growth percent
SNB-19 = assay: NCI60 one-dose screen; conditions: Homo sapiens; SNB-19, 10 μM, one-dose; read-out: Growth percent
SNB-75 = assay: NCI60 one-dose screen; conditions: Homo sapiens; SNB-75, 10 μM, one-dose; read-out: Growth percent
LOX IMVI = assay: NCI60 one-dose screen; conditions: Homo sapiens, 10 μM, one-dose, read-out: Growth percent
MALME-3M [12] = assay: NCI60 one-dose screen; conditions: Homo sapiens; MALME-3M, 10 μM, one-dose; read-out: Growth percent
SK-MEL-2 = assay: NCI60 one-dose screen; conditions: Homo sapiens; SK-MEL-2, 10 μM, one-dose; read-out: Growth percent
SK-MEL-28 [13] = assay: NCI60 one-dose screen; conditions: Homo sapiens; SK-MEL-28, 10 μM, one-dose; read-out: Growth percent
UACC-62 = assay: NCI60 one-dose screen; conditions: Homo sapiens; UACC-62, 10 μM, one-dose; read-out: Growth percent
OVCAR-3 [14] = assay: NCI60 one-dose screen; conditions: Homo sapiens; OVCAR-3, 10 μM, one-dose; read-out: Growth percent
OVCAR-4 = assay: NCI60 one-dose screen; conditions: Homo sapiens; OVCAR-4, 10 μM, one-dose; read-out: Growth percent
OVCAR-8 = assay: NCI60 one-dose screen; conditions: Homo sapiens; OVCAR-8, 10 μM, one-dose; read-out: Growth percent
CAKI-1 = assay: NCI60 one-dose screen; conditions: Homo sapiens; CAKI-1, 10 μM, one-dose; read-out: Growth percent
RXF 393 [15] = assay: NCI60 one-dose screen; conditions: Homo sapiens; RXF 393, 10 μM, one-dose; read-out: Growth percent
UO-31 = assay: NCI60 one-dose screen; conditions: Homo sapiens; UO-31, 10 μM, one-dose; read-out: Growth percent
BT-549 [16] = assay: NCI60 one-dose screen; conditions: Homo sapiens; BT-549, 10 μM, one-dose; read-out: Growth percent

CC[C@]12C=CCN3CC[C@@]4(c5ccc(OC)cc5N(C)[C@H]4[C@@](O)(C(=O)OC)[C@@H]1OC(=O)CCC[P+](c1ccccc1)(c1ccccc1)c1ccccc1)[C@@H]32 [compound 3, reference compound]
GI50 (HL-60(TB) [1]; five-dose): 124 nM | GI50 (K-562; five-dose): 360 nM | GI50 (RPMI-8226; five-dose): 219 nM | GI50 (NCI-H322M [2]; five-dose): 2330 nM | GI50 (COLO 205; five-dose): 161 nM | GI50 (HCC-2998; five-dose): 436 nM | GI50 (HCT-15 [3]; five-dose): 8500 nM | GI50 (SF-268; five-dose): 975 nM | GI50 (SF-539; five-dose): 662 nM | GI50 (MALME-3M [4]; five-dose): 283 nM | GI50 (SK-MEL-28 [5]; five-dose): 261 nM | GI50 (OVCAR-3 [6]; five-dose): 369 nM | GI50 (NCI/ADR-RES; five-dose): > 50000 nM | GI50 (SK-OV-3; five-dose): 894 nM | GI50 (RXF 393 [7]; five-dose): 705 nM | GI50 (HS 578T; five-dose): 1260 nM | GI50 (BT-549 [8]; five-dose): 380 nM | GI50 (Leukemia panel; read-out: Mean GI50): 360 nM | GI50 (CNS Cancer panel; read-out: Mean GI50): 760 nM | GI50 (Ovarian Cancer panel; read-out: Mean GI50): 7780 nM | GI50 (Renal Cancer panel; read-out: Mean GI50): 3520 nM | GI50 (Breast Cancer panel; read-out: Mean GI50): 450 nM | activity at 10 µM (CCRF-CEM): 11.2% | activity at 10 µM (HL-60(TB) [9]; HL-60(TB), 10 μM, one-dose, read-out: Growth percent): -53.1% | activity at 10 µM (A549/ATCC): 13.4% | activity at 10 µM (HOP-62): 2.56% | activity at 10 µM (NCI-H226): 14% | activity at 10 µM (NCI-H23): -8.66% | activity at 10 µM (NCI-H322M [10]): 35.6% | activity at 10 µM (HCT-116): 8.72% | activity at 10 µM (HCT-15 [11]): 101% | activity at 10 µM (HT29): 2.42% | activity at 10 µM (SNB-19): 11% | activity at 10 µM (SNB-75): -4.39% | activity at 10 µM (LOX IMVI): 8.81% | activity at 10 µM (MALME-3M [12]): -12.4% | activity at 10 µM (SK-MEL-2): -65.3% | activity at 10 µM (SK-MEL-28 [13]): 20.9% | activity at 10 µM (UACC-62): -59.3% | activity at 10 µM (OVCAR-3 [14]): -2.49% | activity at 10 µM (OVCAR-4): -3.58% | activity at 10 µM (OVCAR-8): 3.13% | activity at 10 µM (CAKI-1): 52.2% | activity at 10 µM (RXF 393 [15]): 28.9% | activity at 10 µM (UO-31): 80% | activity at 10 µM (BT-549 [16]): 11%

CCC12C=CCN3CCC4(c5ccc(OC)cc5N(C)C4C(O)(C(=O)OC)C1OC(=O)c1ccc(C[P+](c4ccccc4)(c4ccccc4)c4ccccc4)cc1)C32 (centres unmarked) [compound 12]
GI50 (HL-60(TB) [1]): 297 nM | GI50 (K-562): 448 nM | GI50 (RPMI-8226): 325 nM | GI50 (NCI-H322M [2]): 4760 nM | GI50 (COLO 205): 313 nM | GI50 (HCC-2998): 991 nM | GI50 (HCT-15 [3]): 27400 nM | GI50 (SF-268): 1280 nM | GI50 (SF-539): 1260 nM | GI50 (MALME-3M [4]): 652 nM | GI50 (SK-MEL-28 [5]): 520 nM | GI50 (OVCAR-3 [6]): 704 nM | GI50 (NCI/ADR-RES): > 100000 nM | GI50 (SK-OV-3): 2700 nM | GI50 (RXF 393 [7]): 1140 nM | GI50 (HS 578T): 1270 nM | GI50 (BT-549 [8]): 538 nM | GI50 (Leukemia panel; read-out: GI50 Mean): 770 nM | GI50 (CNS Cancer panel; read-out: GI50 Mean): 1320 nM | GI50 (Ovarian Cancer panel; read-out: GI50 Mean): 15800 nM | GI50 (Renal Cancer panel; read-out: GI50 Mean): 8300 nM | GI50 (Breast Cancer panel; read-out: GI50 Mean): 610 nM | activity at 10 µM (CCRF-CEM): -46.4% | activity at 10 µM (HL-60(TB) [9]; HL-60, read-out: Growth percent): -69% | activity at 10 µM (A549/ATCC): 31% | activity at 10 µM (HOP-62): -32.7% | activity at 10 µM (NCI-H226): -23.1% | activity at 10 µM (NCI-H23): 0.48% | activity at 10 µM (NCI-H322M [10]): 19.9% | activity at 10 µM (HCT-116): -62.8% | activity at 10 µM (HCT-15 [11]): 90.1% | activity at 10 µM (HT29): -39.4% | activity at 10 µM (SNB-19): -72.2% | activity at 10 µM (SNB-75): -61.7% | activity at 10 µM (LOX IMVI): -39.8% | activity at 10 µM (MALME-3M [12]): -95.5% | activity at 10 µM (SK-MEL-2): -77.8% | activity at 10 µM (SK-MEL-28 [13]): -92.4% | activity at 10 µM (UACC-62): -86.9% | activity at 10 µM (OVCAR-3 [14]): -63.4% | activity at 10 µM (OVCAR-4): 7.65% | activity at 10 µM (OVCAR-8): -18.5% | activity at 10 µM (CAKI-1): -7.04% | activity at 10 µM (RXF 393 [15]): -61.8% | activity at 10 µM (UO-31): 88.3% | activity at 10 µM (BT-549 [16]): -89.1%

— publication PMC12028158, “Synthesis and In Vitro Evaluation of the Anticancer Effect of Novel Phosphonium Vindoline Derivatives” (International Journal of Molecular Sciences, 2025)
